# Test results from patent US7993884B2, “Beta-xylosidase for conversion of plant cell wall carbohydrates to simple sugars” (The United States of America as represented by the …, priority 2006, dated 2011).
# Several values for one entry are separate records, joined by “and”; a condition that tells them apart may be missing. Equal values may be shown once. Read-outs that look alike come from different tables or passages of the source.
# Legend:
# [1] = target: T1, Selenomonas ruminantium GA192 β-D-xylosidase (SXA), wild type, SEQ ID NO: 2 (Pseudoselenomonas ruminantium, UniProt O52575); experiment: Steady-state kinetics of SXA with X2-X6, improved quenching, HPLC (Example 3); conditions: for factor by which kcat is higher than that of the Bacillus pumilus enzyme: SXA pH 5.3 vs B. pumilus pH 7.15, 25° C
# Description: Samples (25 μL) were injected onto the column equilibrated with 0.1 M NaOH and developed with a 5-min linear gradient (0.1 M NaOH to 33 mM sodium acetate) at ˜25° C. and a flow rate of 1 mL min^−1.
# Samples were kept on wet ice or the HPLC autosampler at 5° C. until analyzed by HPLC. Initial rates, calculated from linear regressions of the [D-xylose] produced versus time, were fitted to Eq. 1 to determine steady-state kinetic parameters.
# [2] = target: T1, Selenomonas ruminantium GA192 β-D-xylosidase (SXA), wild type, SEQ ID NO: 2; experiment: Steady-state kinetics of SXA with 4NP-glycosides (Example 1, Methods A and B)
# Description: Kinetics with 4NP Substrates
# (§1) Two methods were employed for determining initial rates. […] Initial rates were calculated from fitting the absorbance readings versus time to a line (minimum of 4 points per reaction progression) and by using an extinction coefficient of 17.4 mM^−1 cm^−1. In Method B (continuous monitoring), temperature-equilibrated reactions (1 mL) were monitored at 380 nm (for pH values below 6) or 400 nm (for pH values of 6 and above). Reactions were generally monitored 0.3 min for initial rate determinations. Delta extinction coefficients (product-substrate) used for molar conversion were determined by subtracting the absorbance of substrate (at pH 5 so even very minor contaminating 4NP would not contribute) from the absorbance of 4NP for each reaction condition. […] The concentration of 4NP substrates was determined by incubating the substrate with excess enzyme until an end point was reached, adding an aliquot (0.01 to 0.1 mL) to 0.1 M NaOH, recording the absorbance at 400 nm and using the extinction coefficient of 18.3 cm^−1mM^−1. Unless indicated otherwise, for both Methods A and B, reactions were initiated by adding a small aliquot of enzyme (generally 7 μl of enzyme diluted into 10 mM sodium phosphate, pH 7.0, and incubated on wet ice or at ˜25° C.) to the 1-mL, temperature-equilibrated (25° C.) reaction mixtures. For pH studies, buffers of constant ionic strength (I=0.3 M), adjusted with NaCl, were used as indicated: 100 mM succinate-NaOH (pH 4.3-6), 100 mM sodium phosphate (pH 6-8), 30 mM sodium pyrophosphate (pH 8-9), glycine-NaOH (pH 9) and glycylglycine-NaOH (pH 9).
# SXA [3] = target: T2, SXA (Selenomonas ruminantium, UniProt O52575); experiment: SXA-catalyzed hydrolysis of 4NP-glycoside substrates, initial rates (Methods A and B); format: biochemical;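 note: initial rates from 4-nitrophenol release, tracked by absorbance over roughly 0.3 min and converted using product-minus-substrate extinction differences, in 1 mL mixtures started by enzyme addition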
# Description: as §1
# [4] = target: Selenomonas ruminantium GA192 β-D-xylosidase (SXA, parent SEQ ID NO: 2) variant D127A (Pseudoselenomonas ruminantium, UniProt O52575, D127A); experiment: Steady-state kinetics of SXA mutant D127A with 4NPX
# Description: (§2) Site-directed mutagenesis was performed using the QuikChange site-directed mutagenesis kit (Stratagene) according the manufacturer's instructions. […] Complete sequences were determined on a 3700 sequencer (Applied Biosystems) using T7 promoter and specific primers to confirm that only the intended mutations had been introduced. Lasergene software (DNAStar) was used to analyze the sequence data. pSRA1 and its mutated plasmids were used for the transformation of E. coli BL21(DE3). Transformants were inoculated to 50 mL Luria-Bertani (LB) broth supplemented with 50 mg ampicillin/mL and the flask was shaken overnight at 250 rpm and 37° C. Twenty mL of the overnight culture were transferred to a 2.8-liter baffled flask containing 1.0 liter SOB medium [2.0% tryptone, 0.5% yeast extract, 0.05% NaCl, 0.0186% KCl (all in wt/vol) and 10 mM MgSO4] supplemented with 50 mg ampicillin/mL. The culture was shaken at 250 rpm and 37° C. […] Cells were harvested by centrifugation and cell pellets were stored at −80° C. until use.
# (§3) Initial purification steps and diafiltration steps were performed at 4° C. Chromatography was at room temperature (˜24° C.). Cells were thawed, suspended in 40 mL of 50 mM Tris-HCl, pH 7.5 (Buffer A) containing Complete protease inhibitor cocktail (Roche) and disrupted by sonication. […] The column was washed until absorbance at 280 nm of the eluate became minimal (˜200 mL) and developed with a 500-mL linear gradient (Buffer A+30% saturated ammonium sulfate to Buffer A).
# (§4) Two methods were employed for determining initial rates. […] Initial rates were calculated from fitting the absorbance readings versus time to a line (minimum of 4 points per reaction progression) and by using an extinction coefficient of 17.4 mM^−1 cm^−1. […] The concentration of 4NP substrates was determined by incubating the substrate with excess enzyme until an end point was reached, adding an aliquot (0.01 to 0.1 mL) to 0.1 M NaOH, recording the absorbance at 400 nm and using the extinction coefficient of 18.3 cm^−1mM^−1. […]
# [5] = target: Selenomonas ruminantium GA192 β-D-xylosidase (SXA, parent SEQ ID NO: 2) variant H248A (Pseudoselenomonas ruminantium, UniProt O52575, H248A); experiment: Steady-state kinetics of SXA mutant H248A with 4NPX
# Description: as §2, §3, §4
# SXA [6] = target: T2, SXA; experiment: biochemical; conditions: read-out: Km^4NPX; 100 mM succinate-NaOH, pH 5.3, 25° C.
# [7] = target: Selenomonas ruminantium GA192 β-D-xylosidase (SXA, parent SEQ ID NO: 2) variant E186A (Pseudoselenomonas ruminantium, UniProt O52575, E186A); experiment: Steady-state kinetics of SXA mutant E186A with 4NP substrates
# Description: as §2
# (§5) Initial purification steps and diafiltration steps were performed at 4° C. Chromatography was at room temperature (˜24° C.). Cells were thawed, suspended in 40 mL of 50 mM Tris-HCl, pH 7.5 (Buffer A) containing Complete protease inhibitor cocktail (Roche) and disrupted by sonication. Following centrifugation, the supernatant was brought to 30% saturation with respect to ammonium sulfate and centrifuged. […] The column was washed until absorbance at 280 nm of the eluate became minimal (˜200 mL) and developed with a 500-mL linear gradient (Buffer A+30% saturated ammonium sulfate to Buffer A).
# (§6) Two methods were employed for determining initial rates. […] Initial rates were calculated from fitting the absorbance readings versus time to a line (minimum of 4 points per reaction progression) and by using an extinction coefficient of 17.4 mM^−1 cm^−1. […] The concentration of 4NP substrates was determined by incubating the substrate with excess enzyme until an end point was reached, adding an aliquot (0.01 to 0.1 mL) to 0.1 M NaOH, recording the absorbance at 400 nm and using the extinction coefficient of 18.3 cm^−1mM^−1. Unless indicated otherwise, for both Methods A and B, reactions were initiated by adding a small aliquot of enzyme (generally 7 μl of enzyme diluted into 10 mM sodium phosphate, pH 7.0, and incubated on wet ice or at ˜25° C.) to the 1-mL, temperature-equilibrated (25° C.) reaction mixtures. For pH studies, buffers of constant ionic strength (I=0.3 M), adjusted with NaCl, were used as indicated: 100 mM succinate-NaOH (pH 4.3-6), 100 mM sodium phosphate (pH 6-8), 30 mM sodium pyrophosphate (pH 8-9), glycine-NaOH (pH 9) and glycylglycine-NaOH (pH 9).
# SXA [8] = target: T2, SXA; conditions: pH 5.3 and 25° C., relative to A2
# [9] = target: Selenomonas ruminantium GA192 β-D-xylosidase (SXA, parent SEQ ID NO: 2) variant R290A (Pseudoselenomonas ruminantium, UniProt O52575, R290A); experiment: Steady-state kinetics of SXA mutant R290A with 4NPX
# Description: as §2, §5, §6
# [10] = target: Selenomonas ruminantium GA192 β-D-xylosidase (SXA, parent SEQ ID NO: 2) variant D14A (Pseudoselenomonas ruminantium, UniProt O52575, D14A); experiment: Steady-state kinetics of SXA mutant D14A with 4NP substrates
# Description: as §2, §5, §6
# [11] = target: T1, Selenomonas ruminantium GA192 β-D-xylosidase (SXA), wild type, SEQ ID NO: 2; experiment: Steady-state kinetics of SXA with 4NPX2, A2 and X2-X6 by HPLC (Example 1); conditions: for relative kcat value: A2 = 1
# Description: Samples (25 μL) were injected onto the column equilibrated with 0.1 M NaOH and developed with a 15-min linear gradient (0.1 M NaOH to 15 mM sodium acetate) at ˜25° C. and a flow rate of 1 mL min^−1.
# Before (time=0 min) and after (time=1-6 min) initiating reactions with enzyme (7 μL), samples (0.05-0.1 mL) were removed and quenched with an equal volume of 0.5 M acetic acid and frozen. Following lyophilization, samples were dissolved in H2O and analyzed by HPLC. […] Results from two replicate reactions were combined to provide data points for the progress curves.
# Before and after addition of enzyme (7 μL), 25-μl aliquots of the reaction mixtures were directly injected onto the HPLC column for quantification of product L-arabinose.
# Quenched samples were analyzed by HPLC for D-xylose. Initial rates were determined from linear regressions of [D-xylose] produced versus reaction time. […] Four 1-mL replicate reactions were conducted to supply data points for the progress curves. Two parallel reactions were conducted, under the same conditions with the same reaction components, the absorbance at 400 nm was continuously monitored (20 min) for 4NP production, and the absorbance values were converted to mM 4NP concentrations by using a delta extinction coefficient (product-substrate) of 8.22 mM^−1 cm^−1.
# SXA [12] = target: T2, SXA; conditions: read-out: Km^4NPX; pH 5.3, 25° C., HPLC of D-xylose
# Excerpt: Concentrations of D-xylose produced versus time were fitted to lines for determination of initial rates. For determination of steady-state kinetic parameters, initial rates were fitted to Eq. 2 (competitive inhibition).
# [13] = system: Bacillus pumilus β-xylosidase; conditions: pH 7, 25° C.; cited from earlier work
# [14] = Exper. 1: succinate pH 5.3, Method A, η/ηo 1.00
# [15] = Exper. 1: succinate pH 5.3, Method A, η/ηo 6.12 (50% sucrose)
# [16] = Exper. 2: MES pH 6.00, Method B, η/ηo 1.00
# [17] = Exper. 2: MES pH 6.00, Method B, η/ηo 6.85 (50% sucrose)
# [18] = I=0.3 M, 25° C., Eq. 7 (4NPX), Eq. 5 (4NPA)
# [19] = 100 mM succinate-NaOH, pH 5.3, 25° C, Method A
# [20] = 100 mM succinate-NaOH, pH 5.3, 25° C
smiles,measurement,setting,value
"O=[N+]([O-])c1ccc(O[C@@H]2OC[C@@H](O)[C@H](O)[C@H]2O)cc1 [4NPX, 4-nitrophenyl-β-D-xylopyranoside]",factor by which kcat is higher than that of the Bacillus pumilus enzyme,[1],4
same,kcat,"[2]; 100 mM MES-NaOH, pH 6.00, 25° C, Method B, 50% sucrose, η/ηo 6.85",30.1 ± 1.1 s⁻¹
same,kcat,"[2]; 100 mM MES-NaOH, pH 6.00, 25° C, Method B, η/ηo 1.00",32.9 ± 0.5 s⁻¹
same,kcat,"[2]; 100 mM succinate-NaOH, pH 5.3, 25° C, Method A, no sucrose",32.8 ± 0.6 s⁻¹ and 31.1 ± 0.4 s⁻¹
same,"affinity of dianionic SXA (D14^−E186^−), higher than that of monoanionic SXA (D14^−E186^H)",[2]; from pH dependence of 1/Km,~2 fold and 1.9 fold
same,kcat,"[2]; pH 5.3, 25° C, Method A, 50% sucrose, η/ηo 6.12",29.8 ± 0.5 s⁻¹
same,kcat Rel. to η/ηo = 1,"[2]; pH 5.3, η/ηo 6.12",0.910 ± 0.0152
same,kcat Rel. to η/ηo = 1,"[2]; pH 6.00, η/ηo 6.85",0.920 ± 0.040
same,pH-independent kcat,"[2]; pH profile, I=0.3 M, Method B",32.7±0.5 s^−1
same,pH-independent kcat,SXA [3],32.7±0.5 s^−1
same,pH-independent kcat/Km,SXA [3],58.7±1.3 s^−1 mM^−1
same,Relative Rate,"SXA [3]; 5 mM 4NP glycoside, 100 mM succinate-NaOH, pH 5.3, 25° C., Method A, initial rate relative to 4NPX",1.00 ± 0.01
same,Km,"SXA [3]; 100 mM sodium phosphate, pH 7.0, 25° C., Method B",443 ± 8 µM
same,pH-independent 1/Km,"SXA [3]; 1/Km versus pH, Eq. 4 (4NPX), Eq. 5 (4NPA)",2.65±0.081 mM^−1
same,pKa of 1/Km versus pH (single protonatable group),SXA [3]; Eq. 4,5.6 and 5.56±0.08
same,Km,SXA [3]; [14],742 ± 41 µM
same,kcat Rel. to η/ηo = 1,SXA [3]; [14],1.00
same,Km,SXA [3]; [15],690 ± 35 µM
same,kcat Rel. to η/ηo = 1,SXA [3]; [15],0.910 ± 0.0152
same,Km,SXA [3]; [16],699 ± 35 µM
same,kcat Rel. to η/ηo = 1,SXA [3]; [16],1.00
same,Km,SXA [3]; [17],637 ± 81 µM
same,kcat Rel. to η/ηo = 1,SXA [3]; [17],0.920 ± 0.040
same,pKa1 of kcat versus pH,"SXA [3]; I=0.3 M, 25° C., Eq. 5",3.5 and ~3.6 and 3.54±0.10
same,pKa1 of kcat/Km versus pH,"SXA [3]; I=0.3 M, 25° C., Eq. 5",~5.0 and 5.00±0.04
same,pKa2 of kcat versus pH,"SXA [3]; I=0.3 M, 25° C., Eq. 5",6.9 and 6.90±0.03
same,pKa2 of kcat/Km versus pH,"SXA [3]; I=0.3 M, 25° C., Eq. 5",7.23±0.04
same,pKa1 of 1/Km versus pH,SXA [3]; [18],4.8 and 4.81±0.21
same,pKa2 of 1/Km versus pH,SXA [3]; [18],6.4 and 6.39±0.26
same,higher affinity of dianionic SXA (D14^−E186^−) than monoanionic SXA (D14^−E186^H),SXA [3]; from pH dependency of 1/Km,~2 fold and 1.9 fold
same,factor by which kcat of SXA is higher than that of the B. pumilus enzyme,"SXA [3]; substrate 4NPX, SXA pH 5.3, 25° C. (Example 1) vs B. pumilus pH 7.15, 25° C.",4
same,kcat,[4]; [19],0.000129 ± 0.000003 s⁻¹
same,factor by which kcat is degraded vs wild type,"[4]; pH 5.3, 25° C.",24000
same,kcat,[5]; [19],0.0950 ± 0.0025 s⁻¹
same,factor by which kcat is degraded vs wild type,"[5]; pH 5.3, 25° C.",330
same,Km,SXA [6],716 ± 32 µM
same,kcat,[7]; [19],0.00267 ± 0.00005 s⁻¹
same,factor by which kcat is degraded vs wild type,"[7]; pH 5.3, 25° C.",12000
same,relative kcat values,SXA [8],340
same,kcat,"[9]; 100 mM succinate-NaOH, pH 5.3, 25° C, Method A, not well determined (highest 4NPX 5 mM)",0.0126 ± 0.0020 s⁻¹
same,factor by which kcat is degraded vs wild type,"[9]; pH 5.3, 25° C.",2500
same,increase of Km(4NPX) vs wild type,"[9]; pH 5.3, 25° C.",70 fold
same,kcat,[10]; [19],0.00954 ± 0.00016 s⁻¹
same,factor by which kcat is degraded vs wild type,"[10]; pH 5.3, 25° C.",3300
same,relative kcat value,"[11]; pH 5.3, 25° C",340
same,Km,SXA [12],758 ± 59 µM
"OC1OC[C@@H](O[C@@H]2OC[C@@H](O)[C@H](O)[C@H]2O)[C@H](O)[C@H]1O (stereo partly drawn) [X2, 1,4-β-D-xylobiose]",kcat,[1]; [20],185 ± 3 s⁻¹
same,factor by which kcat is higher than that of the Bacillus pumilus enzyme,[1],10
same,"affinity of dianionic SXA (D14^−E186^−), lower than that of monoanionic SXA (D14^−E186^H)",[1]; from pH dependence of 1/Km,2.9 fold and 3 fold
same,kcat,"[1]; pH 5.3, 25° C (improved technique), approximate",approximately 185 sec^−1
same,pH-independent kcat,"[1]; pH profile, I=0.3 M, 25° C",172±2
same,kcat,[13],18 s⁻¹
same,kcat,[11]; [20],412 s⁻¹ and 412 ± 18 s⁻¹
same,kcat,"[11]; pH 5.3, 25° C (Example 1), approximate",approximately 410 sec^−1
same,relative kcat value,"[11]; pH 5.3, 25° C",5600
same,kcat relative to that of substrates X3-X6,"[11]; pH 5.3, 25° C.",2-4 fold
same,kcat ratio X2 vs 4NPX,"[11]; same reaction conditions, pH 5.3, 25° C.",12 fold and 13 fold
